Measurements as given in US6376670B1, “Quinoline-indole antimicrobial agents, uses and compositions related thereto” (Sepracor Inc., priority 1997, dated 2002).

What was measured:
Type in all cases: cell-based
[1] = test system: ciprofloxacin-resistant Staphylococcus aureus (CRSA); test: Determination of MIC values (BHI broth, 96 well microtiter plate); details: MRSA, cells marked [CRSA], overnight 37° C., read-out: MIC [CRSA] (printed in MRSA column)
Outline: (§1)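 MIC was read as the lowest drug concentration without observable growth after roughly 16 h at 37 °C under about 7–10% CO2. Wells held BHI broth with compound at final 25–0.39 μg/mL (1:100 from DMSO dilutions). Each well was inoculated at 10^5–10^6 cells/mL.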

Streptococcus pneumoniae = test: as above; details: Streptococcus pneumoniae; S. pneu; BHI broth, overnight 37° C.; read-out: MIC S. pneu
Outline: as §1

[2] = test system: vancomycin-resistant Enterococcus spp. (VRE); test: as above; details: Enterococcus, VRE, VREF; BHI broth, overnight 37° C.; read-out: MIC VREF
Outline: as §1

S. aureus 8325-4 [3] = test: Lytic response (culture turbidity 600 nm) in MH broth; details: added at 5×, 10×, and 20×MIC to early log phase cultures
Description: (§2) Activities of the quinoline-indoles and comparator agents were determined against MSSA (n=32), MRSA (n=31) and VISA (n=7). Susceptibility testing on MH agar was performed using an inoculum of 10^6 c.f.u. Bactericidal, lytic and PAEs were determined on S. aureus 8325-4 in MH broth. Samples were removed for viable numbers on MH agar (for bactericidal response) and culture turbidity (600 nm) (for lytic response). PAEs were determined by a broth dilution method following exposure of bacteria to drugs at 5×MIC for 60 min.
The effects of the quinoline-indoles, and ciprofloxacin and rifampin (controls) on the integrity of S. aureus 8325-4 were examined following addition at 5×, 10×, and 20×MIC to early log phase cultures.
The lysis experiments were performed using classical “time kill-curve” methodology. See V. Lorian, Antibiotics in Laboratory Medicine, 4th ed., Chapter 2; Williams & Wilkins, Baltimore, 1996 (ISBN 0-683-05169-5). Bacteria (e.g., S. aureus) are exposed in liquid culture (early log phase approx […]) to multiples (typically 2×, 5×, 10×, and 20×) of the single cell agar MIC. Drug-free controls are also included. […] The samples are diluted in fresh drug-free medium and aliquots from a range of dilutions spread onto drug-free agar plates and those giving 30-300 colony forming units/plate are counted for quantification of survivors versus time of drug exposure. […]

VISA-5836 = test: MIC against VISA strain; details: Staphylococcus aureus
Description: (§3) Stock solutions of compounds are prepared with a concentration of 10 mg/mL. These solutions are then diluted 1:4 to give a concentration of 2.5 mg/mL. The compounds are then serially diluted 1:2 for 6 iterations. The concentrations made for each compound are 2.5, 1.25, 0.625, 0.3125, 0.156, 0.078, and 0.039 mg/mL. A control sample (no compound) is run along with each compound tested. All dilutions are made in DMSO.
(§4) All wells of a 96 well microtiter plate are filled with 100 μL of BHI (Brain-Heart Infusion) broth. Columns on the plate are labeled 1-12, and rows are labeled A-H. Each column of wells is used to test one series of diluted compounds. Into each well of 100 μL of BHI broth, 1 μL of diluted compound is placed for a 1:100 dilution. This makes the final concentration of each drug series 25, 12.5, 6.25, 3.125, 1.56, 0.78, 0.39, and 0 μg/mL.
(§5) Test Organism: A sterile 15 mL screw cap tube is filled wth 3 mL of BHI broth. Next, 2-3 colonies of test organism are inoculated into the tube. The tube is then incubated at 37° C. in a CO2 (approx. 7%) atmosphere jar. The organisms are allowed to grow to the density of a 0.5 McFarland standard (10^8 cells/mL). The organism is then inoculated into each well of the microtiter plate containing the diluted compounds to be tested for MIC. The inoculum is 1 μL in volume and represents 10^5 to 10^6 cells/mL.
(§6) After inoculation the plates are covered and incubated at 37° C. and approx. 7-10% CO2 atmosphere overnight (about 16 hours). The plates are then observed for growth, the well with the lowest concentration of drug and no observable growth represents the well determining the MIC.

VISA-5827 = test: MIC against VISA strain; details: Staphylococcus aureus
Description: as §3, §4, §5, §6

[4] = test system: methicillin-resistant Staphylococcus aureus (MRSA); test: Determination of MIC values (BHI broth, 96 well microtiter plate); details: Staphylococcus aureus, MRSA; read-out: MIC MRSA
Outline: as §1

S. aureus (ATCC 29213) = test: MIC against S. aureus strain; details: Staphylococcus aureus, ATCC29213
Description: as §3, §4, §5, §6

S. aureus (ATCC 33591) = test: MIC against S. aureus strain; details: Staphylococcus aureus, ATCC33591
Description: as §3, §4, §5, §6

S. aureus (ATCC 33592) = test: MIC against S. aureus strain; details: Staphylococcus aureus, ATCC33592
Description: as §3, §4, §5, §6

S. aureus (ATCC 25923) = test: MIC against S. aureus strain; details: Staphylococcus aureus, ATCC25923
Description: as §3, §4, §5, §6

S. aureus 8325-4 [5] = test: Post-antibiotic effect (PAE), broth dilution method; details: exposed to 5×MIC for 60 min before washout; PAE = T-C
Description: as §2
The PAE, defined as the lag period before the target organism resumes a normal growth rate after exposure to an inhibitor, was determined for D, A, and rifampin (control) against S. aureus 8325-4. Organisms were exposed to 5×MIC for 60 min. before washout and PAE calculated as T-C, wherein T=time required for treated cells to increase 1 log CFU/mL; and C=time required for non-treated control to increase 1 log CFU/ml. after washout with fresh medium. PAEs for D and A were both 40 min and for the rifampin control PAE was 180 mins. The rifampin PAE is in agreement with literature values.

MIC [1]	MIC (Streptococcus pneumoniae)	MIC [2]	MIC (VISA-5836)	MIC (VISA-5827)	MIC [4]	Structure (SMILES)	other results
< 7 µg/mL						NCc1ccc(CNC(=O)c2cc(-c3c[nH]c4ccc(Br)cc34)nc3ccccc23)cc1 [Example 284]	
< 7 µg/mL	< 7 µg/mL	< 7 µg/mL				NCCNC(=O)c1cc(-c2c[nH]c3ccc(Br)cc23)nc2ccc(Cl)cc12 [Example 286]	
< 7 µg/mL	< 7 µg/mL	< 7 µg/mL				NCCNC(=O)c1cc(-c2c[nH]c3ccc(Br)cc23)nc2cc(I)ccc12 [Example 296]	
< 7 µg/mL	< 7 µg/mL	< 7 µg/mL				NCCNC(=O)c1cc(-c2c[nH]c3ccc(Br)cc23)nc2c(I)cccc12 [Example 320]	
< 7 µg/mL	< 7 µg/mL	< 7 µg/mL				Cn1cc(-c2cc(C(=O)NCCN)c3ccc(I)cc3n2)c2cc(Br)ccc21 [Example 329]	
			< 7 µg/mL	< 7 µg/mL	< 7 µg/mL	NCc1ccc(CNC(=O)c2cc(-c3c[nH]c4ccc(Br)cc34)nc3ccccc23)cc1 [compound 1]	
			< 7 µg/mL	< 7 µg/mL	< 7 µg/mL	NCc1cc(-c2c[nH]c3ccc(Br)cc23)nc2cc(Cl)ccc12 [compound 8]	
			< 7 µg/mL	< 7 µg/mL	< 7 µg/mL	CN(CC[N+](C)(C)C)C(=O)c1cc(-c2c[nH]c3ccc(Br)cc23)nc2cc(Cl)ccc12 [compound 10]	MIC (S. aureus (ATCC 29213)): < 7 µg/mL; MIC (S. aureus (ATCC 33591)): < 7 µg/mL; MIC (S. aureus (ATCC 33592)): < 7 µg/mL; MIC (S. aureus (ATCC 25923)): < 7 µg/mL

Further lines, the molecule ahead of its results:

Structure (SMILES)	MIC [1]	MIC (Streptococcus pneumoniae)	MIC [2]	MIC (VISA-5836)	MIC (VISA-5827)	MIC [4]	other results
Cn1cc(-c2cc(C(=O)NCc3ccc(CN)cc3)c3ccc(F)cc3n2)c2cc(Br)ccc21 [Example 323]	< 7 µg/mL	< 7 µg/mL	< 25 µg/mL				
CCOC(=O)n1cc(-c2cc(C(=O)NCc3cccc(CN)c3)c3cc(I)ccc3n2)c2cc(Br)ccc21 [Example 324]	> 25 µg/mL	> 25 µg/mL	> 25 µg/mL				
O=C(O)c1cn(C2CC2)c2cc(N3CCNCC3)c(F)cc2c1=O [ciprofloxacin]							bactericidal mechanism of action (lytic versus non-lytic) (S. aureus 8325-4 [3]): non-lytic
NCc1ccc(CNC(=O)c2cc(-c3c[nH]c4ccc(Br)cc34)nc3ccc(C#CCN4CCCCC4)cc23)cc1 [compound 2]				< 7 µg/mL	< 7 µg/mL	< 7 µg/mL	
COc1ccc(NC(=O)c2cc(-c3c[nH]c4ccc(Br)cc34)nc3ccc(C#CCN4CCCCC4)cc23)cc1 [compound 3]				< 7 µg/mL	< 7 µg/mL	< 7 µg/mL	
COC(=O)c1cc(-c2c[nH]c3ccc(Br)cc23)nc2cc(F)ccc12 [compound 4]				< 7 µg/mL	< 7 µg/mL	< 7 µg/mL	
NCCNC(=O)c1cc(-c2c[nH]c3ccc(Br)cc23)nc2cc(Cl)c(C#CCN3CCCCC3)cc12 [compound 5]				< 7 µg/mL	< 7 µg/mL	< 7 µg/mL	
COc1ccc2nc(-c3c[nH]c4ccc(Cl)cc34)ccc2c1 [compound 6]				< 7 µg/mL	< 7 µg/mL	< 7 µg/mL	
OCc1cc(-c2c[nH]c3ccc(Br)cc23)nc2cc(F)ccc12 [compound 7]				< 7 µg/mL	< 7 µg/mL	< 7 µg/mL	
Brc1ccc2[nH]cc(-c3nc4ccc(C#CCN5CCCCC5)cc4c4c3CCO4)c2c1 [compound 9]				< 7 µg/mL	< 7 µg/mL	< 7 µg/mL	
CO[C@H]1/C=C/O[C@@]2(C)Oc3c(C)c(O)c4c(O)c(c(/C=N/N5CCN(C)CC5)c(O)c4c3C2=O)NC(=O)/C(C)=C\C=C\[C@H](C)[C@H](O)[C@@H](C)[C@@H](O)[C@@H](C)[C@H](OC(C)=O)[C@@H]1C [rifampin]							bactericidal mechanism of action (lytic versus non-lytic) (S. aureus 8325-4 [3]): non-lytic; post-antibiotic effect (PAE) (S. aureus 8325-4 [5]): 180 min
